# Where two headings read alike, the source gives them in different places.
# Biological target: T1, SIRT1 (Homo sapiens, UniProt Q96EB6)
# T1 sequence (Q96EB6 1-747): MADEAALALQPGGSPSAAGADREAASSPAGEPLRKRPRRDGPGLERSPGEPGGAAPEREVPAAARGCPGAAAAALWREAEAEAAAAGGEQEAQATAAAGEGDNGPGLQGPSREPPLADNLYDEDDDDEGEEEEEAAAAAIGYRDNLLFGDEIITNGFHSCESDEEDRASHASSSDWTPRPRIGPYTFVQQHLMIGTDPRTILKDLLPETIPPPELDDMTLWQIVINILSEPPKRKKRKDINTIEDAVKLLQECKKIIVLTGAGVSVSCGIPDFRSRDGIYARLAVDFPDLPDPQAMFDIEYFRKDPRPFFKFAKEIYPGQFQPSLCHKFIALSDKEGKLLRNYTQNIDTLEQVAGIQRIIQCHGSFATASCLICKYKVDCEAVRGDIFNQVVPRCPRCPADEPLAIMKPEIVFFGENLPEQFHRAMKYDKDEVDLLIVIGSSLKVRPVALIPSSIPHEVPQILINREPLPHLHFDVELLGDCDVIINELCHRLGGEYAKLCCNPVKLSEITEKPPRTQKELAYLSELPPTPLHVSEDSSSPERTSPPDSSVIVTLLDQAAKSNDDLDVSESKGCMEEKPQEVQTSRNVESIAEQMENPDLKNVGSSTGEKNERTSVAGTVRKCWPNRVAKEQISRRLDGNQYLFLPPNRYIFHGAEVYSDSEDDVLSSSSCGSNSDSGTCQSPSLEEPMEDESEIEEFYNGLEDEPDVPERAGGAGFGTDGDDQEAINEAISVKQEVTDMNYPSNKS
# Experiment: SIRT1 mass spectrometry (MS) based deacetylation assay; on FOLD ACT. MS: test concentration or dose not given here
# Assay type: biochemical
# Details: for EC50: mass spectrometry assay, read-out: ED50 MS ASSAY
# [1] = Sirt1 activators, fold activation as determined by MS
# [2] = fold activation of SIRT1, mass spectrometry assay
# [3] = fold activation of SIRT1 as determined by MS
# [4] = SIRT1 fold activation as determined by MS
SMILES,EC50 (Sirt1 activators),EC50 (SIRT1 activation),also measured
COc1ccc(C(=O)Nc2ccccc2-c2nc3cccnc3[nH]2)cc1C(F)(F)F [Compound 528],< 5 µM,–,FOLD ACT. MS [1]: B (B (Fold Activation <250%))
COc1cc(NC(=S)Nc2cc(-c3nc4ncccc4o3)ccn2)cc(OC)c1OC [Compound 663],5 to 50 µM,–,FOLD ACT. MS [1]: B (B (Fold Activation <250%))
COC(=O)c1ccc(-n2cncn2)c(NC(=O)c2ccc(OC)c(OC)c2)c1 [Compound 258],–,5 to 50 µM,FOLD ACT. MS [2]: B (B (Fold Activation <250%))
O=C(CCc1ccccc1)Nc1ccccc1-c1nc2ccncc2s1 [Compound 460],5 to 50 µM,–,–
COc1cc(OC)cc(C(=O)Nc2cccc(-c3nc4cccnc4s3)c2)c1 [Compound 215],–,< 5 µM,FOLD ACT. MS [3]: B (B (Fold Activation <250%))
CN(C)c1ccc(C(=O)Nc2ccccc2-c2nc3cccnc3[nH]2)cc1 [Compound 534],< 5 µM,–,FOLD ACT. MS [1]: B (B (Fold Activation <250%))
Cc1cnc(C(=O)Nc2ccccc2-c2cn3c(CN4CCNCC4)csc3n2)cn1 [Compound 644],5 to 50 µM,–,FOLD ACT. MS [1]: A (A (Fold activation >250%))
COc1ccc(S(=O)(=O)Nc2cncc(-c3nc4ncccc4o3)c2)cc1OC [Compound 74],–,> 150 µM,–
O=C(Nc1ccccc1-c1cn2c(CN3CCNCC3)csc2n1)c1ccccc1 [Compound 328],–,51 to 100 µM,FOLD ACT. MS [2]: A (A (Fold activation >250%))
O=C(Nc1ccccc1-c1cn2c(CN3CCNCC3)csc2n1)c1cc(-c2ccccc2)ncn1 [Compound 625],< 5 µM,–,FOLD ACT. MS [1]: A (A (Fold activation >250%))
O=C(Nc1ccccc1-c1cn2c(CN3CCNCC3)csc2n1)c1ccc(-c2ccccc2)cc1 [Compound 708],–,< 5 µM,FOLD ACT. MS [4]: A (A (Fold activation >250%))
COc1ccc(C(=O)Nc2cccc(-c3cn4ccc(C)cc4n3)c2)c(OC)c1 [Compound 128],–,5 to 50 µM,FOLD ACT. MS [3]: B (B (Fold Activation <250%))
COc1ccc(C(=O)Nc2ccc(-c3nc4ccccc4[nH]3)cc2)c(OC)c1 [Compound 262],–,< 5 µM,FOLD ACT. MS [2]: B (B (Fold Activation <250%))
COc1cc(C(=O)Nc2cc(CN(C)C)cc(-c3nc4ccncc4s3)c2)cc(OC)c1OC [Compound 174],–,51 to 100 µM,FOLD ACT. MS [3]: A (A (Fold activation >250%))
O=C(Nc1cccc(-c2nc3ccncc3s2)c1)c1ccccc1Oc1ccccc1 [Compound 245],–,< 5 µM,FOLD ACT. MS [2]: B (B (Fold Activation <250%))
COc1ccc(C(=O)Nc2ccccc2-c2nc3ccccc3n2C)cc1OC [Compound 314],–,5 to 50 µM,FOLD ACT. MS [2]: B (B (Fold Activation <250%))
O=C(Nc1ccccc1-c1cn2c(COCC(O)CO)csc2n1)c1cnc2ccccc2n1 (stereo not shown) [Compound 699],–,5 to 50 µM,FOLD ACT. MS [4]: A (A (Fold activation >250%))
FC(F)(F)c1cccc(Cl)c1NC(=S)Nc1cc(-c2nc3ncccc3o2)ccn1 [Compound 667],5 to 50 µM,–,–
COc1ccc(C(=O)Nc2cc(CN3CCNCC3)cc(-c3nc4ncccc4o3)c2)c(OC)c1 [Compound 161],–,5 to 50 µM,FOLD ACT. MS [3]: A (A (Fold activation >250%))
O=C(Nc1ccc2c(c1)OCO2)Nc1cccc(-c2nc3ncccc3o2)n1 [Compound 71],–,5 to 50 µM,FOLD ACT. MS [3]: B (B (Fold Activation <250%))
CN(C)c1cccc(C(=O)Nc2ccccc2-c2nc3cc(CN4CCOCC4)cnc3s2)c1 [Compound 686],–,< 5 µM,FOLD ACT. MS [4]: A (A (Fold activation >250%))
COc1ccc(C(=O)Nc2ccc(-c3nc4ncccc4s3)cc2)c(OC)c1 [Compound 152],–,> 150 µM,–
COc1ccc(C(=O)Nc2cccc(-c3nc4ccccc4[nH]3)n2)cc1OC [Compound 260],–,< 5 µM,FOLD ACT. MS [2]: A (A (Fold activation >250%))
O=C(Nc1ccccc1-c1cn2c(CN3CCNCC3)csc2n1)c1ccc2c(c1)OCO2 [Compound 329],–,5 to 50 µM,FOLD ACT. MS [2]: A (A (Fold activation >250%))
COc1ccc(C(=O)Nc2cc(C(=O)N3CCNCC3)cc(-c3nc4ncccc4o3)c2)c(OC)c1 [Compound 139],–,5 to 50 µM,FOLD ACT. MS [3]: B (B (Fold Activation <250%))
Cc1cc(C(=O)Nc2ccccc2-c2nc3ccncc3s2)n(C(C)(C)C)n1 [Compound 462],< 5 µM,–,–
CCn1ccc(C(=O)Nc2ccccc2-c2nc3ncccc3o2)n1 [Compound 581],5 to 50 µM,–,FOLD ACT. MS [1]: B (B (Fold Activation <250%))

# From patent US8044198B2, “Sirtuin modulating compounds” (Sirtris Pharmaceuticals, Inc., priority 2005, dated 2011)
